From patent US20120040966A1, “ANTI-VIRAL COMPOUNDS, TREATMENT, AND ASSAY” (priority 2008, published 2012) come the findings set out here.

Test [1] concerns Madin Darby Canine Kidney (MDCK) cells. The test can be described thus: cells. Particulars: Canis lupus familiaris, MDCK, read-out: IC50 (toxicity). Type of test: cell-based.
Test [2] relates to influenza strain A/VN/1203/2004 (H5N1). The test can be described thus: microbe, parasite or virus in culture. Type of test: cell-based, Influenza A virus (H5N1).
For test [3], the system named is Influenza virus strain A/CA/04/2009 (H1N1). The test can be described thus: organism not typed. Type of test: cell-based. Particulars: MDCK, 72 h, read-out: H1N1 EC50 (@ 50% Via).
Where [4] appears, read: Influenza A virus, H5N1, MDCK, 72 h, read-out: H5N1 EC50 (@ 50% Via).
[5] abbreviates: Influenza A virus, H5N1, MDCK, 72 h, read-out: H5N1 EC50 (Inf Pt).

pEC50, pIC50: −log10 of the molar value. Read-outs that look alike come from different tables or passages of the source.

As to `CCOc1c(Br)cc(C2NC(=O)NC3=C2CCc2ccccc23)cc1Br` (stereo not drawn) [compound 22704], in test [1], the negative logarithm of the IC50 (pIC50) (in general, the IC50 on a negative log10 scale, so that one unit is a factor of ten) was less than 4.40. Besides, the pEC50 in test [2] (setting [4]), in test [2] (setting [5]) and in test [3] was less than 4.40 each time.
In the case of `CCOc1ccc(C2NC(=O)NC3=C2CCc2ccccc23)cc1C` (stereo not drawn) [compound 22711], the negative-log IC50 (pIC50) in test [1] is less than 4.30. For the same compound, the pEC50 (commonly the negative decadic logarithm of the EC50, by convention in mol/L) in test [2] (setting [4]) was 5.89; in test [2] (setting [5]) it was 5.92; in test [3] it was 4.43.
On the same counts, the results for `COc1ccc(C2NC(=O)NC3=C2CCc2c(OC)cccc23)cc1Br` (stereo not drawn) [compound 22722] are less than 7.21, less than 7.21, less than 7.21 and 5.96.
Turning to `COc1ccc(C2NC(=O)NC3=C2CCCc2ccccc23)cc1Br` (stereo not drawn) [compound 23096], in test [1], the pIC50 is less than 4.40. The pEC50 in test [2] (setting [4]) was 6.62; in test [2] (setting [5]), 6.55; in test [3], 6.82.
For the compound `CC(=O)Oc1ccc(C2NC(=O)NC3=C2COc2ccccc23)cc1Br` (stereo not drawn) [compound 23097], the pIC50 in test [1] was less than 4.40. For the same compound, the pEC50 is 7.03 in test [2] (setting [4]), 6.99 in test [2] (setting [5]) and 6.00 in test [3].
On to `O=C1NC2=C(COc3ccccc32)C(c2ccc(F)c(Br)c2)N1` (stereo not drawn) [compound 23098], for which the negative-log IC50 (pIC50) in test [1] was less than 4.40. Further, the figures for the pEC50 in test [2] (setting [4]), in test [2] (setting [5]) and in test [3] were 5.92, 5.89 and less than 4.40, respectively.
On to `COc1ccc(C2NC(=O)NC3=C2CCc2ncccc23)cc1Br` (stereo not drawn) [compound 23102], for which the pIC50 in test [1] is less than 4.40. In addition, the pEC50 is 4.84 in test [2] (setting [4]) and less than 4.40 in test [3].
As to `CCC(=O)N1CC2=C(NC(=O)NC2c2ccc(OC)c(Br)c2)c2ccccc21` (stereo not drawn) [compound 23205], in test [1], the negative logarithm of the IC50 (pIC50) was less than 4.40. In addition, the pEC50 in test [2] (setting [4]) is 6.71; in test [2] (setting [5]), 6.72; in test [3], 5.00.
With `COc1ccc(C2NC(=O)NC3=C2CN(C(=O)COC(C)=O)c2ccccc23)cc1Br` (stereo not drawn) [compound 23206], the pIC50 in test [1] was less than 4.40. The pEC50 in test [2] (setting [4]) was 7.66; in test [2] (setting [5]), 7.66; in test [2] (read-out: H5N1 EC50 (@ 50% Via)), 7.92; in test [2] (read-out: H5N1 EC50 (Inf Pt)) it was 7.95; in test [3], 7.59.
With `COc1ccc(C2NC(=O)NC3=C2CN(C(=O)c2ccco2)c2ccccc23)cc1Br` (stereo not drawn) [compound 23209], the pIC50 in test [1] is less than 4.40. For the same compound, the negative logarithm of the EC50 (pEC50) in test [2] (setting [4]), in test [2] (setting [5]) and in test [3] was less than 4.40 in each case.
Consider `COc1ccc(C2NC(=O)NC3=C2COc2ccccc23)cc1C` (stereo not drawn) [compound 23210], for which, in test [1], the pIC50 was less than 4.40. Besides, the results for the pEC50 in test [2] (setting [4]), in test [2] (setting [5]) and in test [3] were 6.48, 6.51 and 5.51, respectively.
As for `COc1ccc(C2NC(=O)NC3=C2CN(C(=O)CN2CCOCC2)c2ccccc23)cc1Br` (stereo not drawn) [compound 23272], the negative logarithm of the IC50 (pIC50) in test [1] is less than 4.40. Besides, the pEC50 in test [2] (setting [4]) was 5.04; in test [2] (setting [5]), 5.06; in test [3], 5.46.
On the same counts, the results for `COc1ccc(C2NC(=O)NC3=C2CN(C(=O)c2ccc4c(c2)OCO4)c2ccccc23)cc1Br` (stereo not drawn) [compound 23274] are less than 4.40, less than 4.40, less than 4.40 and less than 4.40.
On the same counts, the results for `COc1ccc(C2NC(O)NC3=C2CN(C(=O)CO)c2ccccc23)cc1Br` (stereo not drawn) [compound 23275] are less than 4.40, 8.57, 8.57 and greater than 7.17.
Consider `COc1ccc(C2NC(=O)NC3=C2CN(C(=O)CNCCO)c2ccccc23)cc1Br` (stereo not drawn) [compound 24717], for which the negative-log IC50 (pIC50) in test [1] is less than 4.40. Moreover, the pEC50 in test [2] (setting [4]) is 5.68; in test [2] (setting [5]), 5.68; in test [3] it was 5.25.
Regarding `COc1ccc(C2NC(=O)NC3=C2CN(C(=O)CNC2CC2)c2ccccc23)cc1Br` (stereo not drawn) [compound 24718], in test [1], the pIC50 is less than 4.40. Besides, the figures for the pEC50 in test [2] (setting [4]), in test [2] (setting [5]) and in test [3] were 5.01, 5.01 and 5.10, respectively.
As for `COc1ccc(C2NC(=O)NC3=C2CN(C(=O)CN(C)C)c2ccccc23)cc1Br` (stereo not drawn) [compound 25012], the pIC50 in test [1] was less than 4.40. Also, the values for the negative-log EC50 (pEC50) in test [2] (setting [4]), in test [2] (setting [5]) and in test [3] were greater than 6.48, 6.70 and 5.52, respectively.
As to `COc1ccc(C2NC(=O)NC3=C2CN(C(=O)CNC(C)=O)c2ccccc23)cc1Br` (stereo not drawn) [compound 25350], in test [1], the negative-log IC50 (pIC50) is less than 4.40. Further, the values for the pEC50 in test [2] (setting [4]), in test [2] (setting [5]) and in test [3] were 7.35, 7.36 and 6.21, respectively.
Take `COC(=O)N1CC2=C(NC(=O)NC2c2ccc(OC)c(Br)c2)c2ccccc21` (stereo not drawn) [compound 25408]: the pIC50 in test [1] is less than 4.40. Besides, the pEC50 in test [2] (setting [4]) is 6.68; in test [2] (setting [5]) it was 6.70; in test [3], 5.01.
Take `COc1ccc(C2NC(=O)NC3=C2CN(C(=O)CN2CCC2)c2ccccc23)cc1Br` (stereo not drawn) [compound 25411]: the negative logarithm of the IC50 (pIC50) in test [1] is less than 4.40. Also, the negative-log EC50 (pEC50) was 6.09 in test [2] (setting [4]), 6.12 in test [2] (setting [5]) and 5.43 in test [3].
As for `COc1ccc(C2NC(=O)NC3=C2CN(C(=O)CSCC(O)CO)c2ccccc23)cc1Br` (stereo not drawn) [compound 25412], the negative logarithm of the IC50 (pIC50) in test [1] was less than 4.40. The pEC50 in test [2] (setting [4]) was 6.05; in test [2] (setting [5]), 6.07; in test [3], 5.51.
Take `COc1ccc(C2NC(=O)NC3=C2CN(C(=O)CSCCO)c2ccccc23)cc1Br` (stereo not drawn) [compound 25413]: in test [1], the pIC50 is less than 4.40. In addition, the values for the negative logarithm of the EC50 (pEC50) in test [2] (setting [4]), in test [2] (setting [5]) and in test [3] were 5.36, 5.35 and 5.42, respectively.
As to `COc1ccc(C2NC(=O)NC3=C2CN(C(=O)CNC(=O)CO)c2ccccc23)cc1Br` (stereo not drawn) [compound 25414], in test [1], the pIC50 is less than 4.40. Further, the pEC50 in test [2] (setting [4]) is 6.56; in test [2] (setting [5]), 6.56; in test [3], less than 4.40.
